Laboratory results reported in patent publication US20100029604A1, “ANTIBACTERIAL COMBINATION AND ITS USE” (priority 2007, published 2010).
Read-outs that look alike come from different tables or passages of the source.

Experiments:
C. freundii SHV-5 [1] = assay: Synergy MIC, inhibitor at 4 μg/mL (Example 4); type: cell-based; details: SHV-5, class A, inhibitor constant 4 μg/mL
Escherichia coli TEM-30 = assay: MIC, characterised β-lactamase producing strain (Example 5, Tables 5-7); type: cell-based; details: Table 6, LK-157 at constant 4 μg/mL in combination
[2] = test system: Klebsiella pneumoniae CTX-M1; assay: MIC, characterised β-lactamase producing strain (Example 5, Table 7); type: cell-based; details: CTXM1, combination at constant concentration ratio (2:1)
Source text: (§1) Their MICs were compared with that of cefotaxime, cefotaxime/tazobactam, ceftazidime, ceftazidime/tazobactam, cefepime, cefepime/tazobactam, and piperacillin/tazobactam.

Escherichia coli CTX-M15 = assay: as above; type: cell-based; details: CTXM15, combination at constant concentration ratio (2:1)
Source text: as §1

[3] = test system: Klebsiella pneumoniae CTX-M15; assay: as above; type: cell-based; details: CTXM15, combination at constant concentration ratio (2:1)
Source text: as §1

Escherichia coli CTX-M9 = assay: as above; type: cell-based; details: CTXM9, combination at constant concentration ratio (2:1)
Source text: as §1

[4] = test system: Klebsiella pneumoniae CTX-M14; assay: as above; type: cell-based; details: CTXM14, combination at constant concentration ratio (2:1)
Source text: as §1

[5] = test system: Enterobacter cloacae CTX-M9; assay: as above; type: cell-based; details: CTXM9, combination at constant concentration ratio (2:1)
Source text: as §1

S. aureus PC = assay: Synergy MIC, inhibitor at 4 μg/mL (Example 3); type: cell-based, Staphylococcus aureus; details: S. aureus, β-lactamase PC, inhibitor constant 4 μg/mL
Description: (§2) Stock solutions of the test compounds and control antibiotics were prepared in distilled water according to the NCCLS guidelines [Methods for dilution antimicrobial tests for bacteria that grow aerobically. NCCLS document M7-A5; 2000; vol. 19. National Committee for Clinical Laboratory Standards, Villanova, Pa.]. All drug weights were corrected for salt forms and refer to the pure drug substance.
(§3) All tested strains and Clinical isolates were either purchased from the American Type Culture Collection (ATCC), or from the in-house company culture collection.
(§4) Stock cultures were prepared from broth cultures grown at 35° C. for 18-22 h without agitation and subsequent addition of 5% DMSO (v/v, final concentration) as cryoprotectant and stored frozen in liquid nitrogen. Mueller-Hinton II broth (MHBII) (BBL Cockeysville, Md.) was used for the testing procedure.
(§5) The in vitro activities of the antibiotics were determined by the broth microdilution method and agar dilution technique as recommended by CLSI guidelines. The MIC experiments were performed in duplicate in 96-well microtiter plates using MHB. Serial twofold dilutions of each antibiotic either alone or in combination with a constant amount (4 μg/mL) of a β-lactamase inhibitor were prepared in MHBII broth. A sterile pipette tip was used to mix the contents of each well (one tip was used going from the low to the high concentration in the same column). The bacterial suspension with final inoculum 10^5 CFU/mL was transferred to the test medium containing the antibacterial substances by a multipoint inoculator (Dynatech, Chantilly, Va., USA). The plates were then incubated at 35° C. for 24 h.
(§6) Representative compound of Formula (I) was evaluated against the serine-based Class A β-lactamases including TEM-type, SHV-type extended spectrum β-lactamases (ESBL) and various non-ESBL enzymes of enterobacteriaceae as well as BRO-type enzymes of Moraxella catarrhalis and penicillinases of Staphylococcus aureus.

M. catarrhalis BRO-2 = assay: Synergy MIC, inhibitor at 4 μg/mL (Example 3); type: cell-based, Moraxella catarrhalis; details: β-lactamase BRO-2 (Table 3 r18), inhibitor constant 4 μg/mL
Description: as §2, §3, §4, §5, §6

M. catarrhalis BRO-1 = assay: Synergy MIC, inhibitor at 4 μg/mL (Example 3); type: cell-based, Moraxella catarrhalis; details: M. catarrhalis, β-lactamase BRO-1 (Table 3 r17); inhibitor constant 4 μg/mL
Description: as §2, §3, §4, §5, §6

E. coli TEM-1 = type: cell-based; details: inhibitor constant 4 μg/mL
Description: as §2, §3, §4, §5, §6

K. oxytoca ESBL = assay: Synergy MIC, inhibitor at 4 μg/mL (Example 3); type: cell-based; details: ESBL (Table 3 r26), inhibitor constant 4 μg/mL
Description: as §2, §3, §4, §5, §6

K. pneumoniae SHV = assay: Synergy MIC, inhibitor at 4 μg/mL (Example 3); type: cell-based; details: β-lactamase SHV, inhibitor constant 4 μg/mL
Description: as §2, §3, §4, §5, §6

E. coli SHV-3 = assay: Synergy MIC, inhibitor at 4 μg/mL (Example 3); type: cell-based; details: β-lactamase SHV-3 (Table 3 r9), inhibitor constant 4 μg/mL
Description: as §2, §3, §4, §5, §6

E. coli ESBL = assay: Synergy MIC, inhibitor at 4 μg/mL (Example 3); type: cell-based; details: inhibitor constant 4 μg/mL
Description: as §2, §3, §4, §5, §6

E. cloacae SHV-12 = assay: Synergy MIC, inhibitor at 4 μg/mL (Example 3); type: cell-based; details: β-lactamase SHV-12 (Table 3 r11), inhibitor constant 4 μg/mL
Description: as §2, §3, §4, §5, §6

C. freundii SHV-5 [6] = assay: Synergy MIC, inhibitor at 4 μg/mL (Example 3); type: cell-based; details: β-lactamase SHV-5 (Table 3 r10), inhibitor constant 4 μg/mL
Description: as §2, §3, §4, §5, §6

C. freundii ESBL = assay: Synergy MIC, inhibitor at 4 μg/mL (Example 3); type: cell-based; details: ESBL (Table 3 r25), inhibitor constant 4 μg/mL
Description: as §2, §3, §4, §5, §6

`CO/N=C(\C(=O)N[C@@H]1C(=O)N2C(C(=O)O)=C(COC(C)=O)CS[C@H]12)c1csc(N)n1` [cefotaxime] showed an MIC (C. freundii SHV-5 [1]) of 25.6 µg/mL and an MIC (Escherichia coli TEM-30) of 0.031 µg/mL.
Work on `CC(C)(O/N=C(\C(=O)N[C@@H]1C(=O)N2C(C(=O)[O-])=C(C[n+]3ccccc3)CS[C@H]12)c1csc(N)n1)C(=O)O` [ceftazidime] yielded an MIC [2] of 16 µg/mL, an MIC (Escherichia coli CTX-M15) of 32 µg/mL and an MIC [3] of 32 µg/mL. It also gave an MIC (Escherichia coli CTX-M9) of 2 µg/mL, an MIC [4] of 8 µg/mL and an MIC [5] of 0.5 µg/mL. It also gave an MIC (S. aureus PC; first listed (Table 3 r19)) of 12.8 µg/mL, an MIC (S. aureus PC; second listed (Table 3 r20)) of 25.6 µg/mL and an MIC (M. catarrhalis BRO-2) of 0.05 µg/mL. The MIC (M. catarrhalis BRO-1) was 0.2 µg/mL, the MIC (E. coli TEM-1; β-lactamase TEM-1, first listed (Table 3 r14)) was 0.2 µg/mL and the MIC (E. coli TEM-1; β-lactamase TEM-1, second listed (Table 3 r15)) was 3.2 µg/mL. For the same compound, the MIC (K. oxytoca ESBL) was 0.4 µg/mL, the MIC (K. pneumoniae SHV; first listed (Table 3 r12)) was > 25.6 µg/mL and the MIC (K. pneumoniae SHV; second listed (Table 3 r13)) was 12.8 µg/mL. The MIC (E. coli SHV-3) was 1.6 µg/mL, the MIC (E. coli ESBL; first listed (Table 3 r21)) was 1.6 µg/mL and the MIC (E. coli ESBL; fourth listed (Table 3 r24)) was > 25.6 µg/mL. The MIC (E. coli ESBL; second listed (Table 3 r22)) was 0.4 µg/mL, the MIC (E. coli ESBL; third listed (Table 3 r23)) was 0.2 µg/mL and the MIC (E. cloacae SHV-12) was > 25.6 µg/mL. The MIC (C. freundii SHV-5 [6]) was > 25.6 µg/mL and the MIC (C. freundii ESBL) was > 25.6 µg/mL.
